Experimental data published in PubChem BioAssay (NCI).
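Protocol summary: plate cells (96-well), add compound at 5 concentrations, incubate 48 h, interpolate endpoints linearly. TGI: concentration producing complete growth inhibition.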

Assays:
Test in all cases: NCI tumour cell line growth inhibition, 48 h
RXF 393 renal = system: RXF 393 renal
NCI-H460 lung = system: NCI-H460 lung
U251 CNS = system: U251 CNS
HOP-62 NSCLC = system: HOP-62 NSCLC
BT-549 breast = system: BT-549 breast
HCC-2998 colon = system: HCC-2998 colon
786-0 renal = system: 786-0 renal
DU-145 prostate = system: DU-145 prostate
NCI/ADR-RES ovarian = system: NCI/ADR-RES ovarian
HCT-116 colon = system: HCT-116 colon
CCRF-CEM leukemia = system: CCRF-CEM leukemia
HCT-15 colon = system: HCT-15 colon
IGROV1 ovarian = system: IGROV1 ovarian
TK-10 renal = system: TK-10 renal
OVCAR-4 ovarian = system: OVCAR-4 ovarian
HS 578T breast = system: HS 578T breast
MDA-N = system: MDA-N
SNB-19 CNS = system: SNB-19 CNS
UO-31 renal = system: UO-31 renal
RPMI-8226 leukemia = system: RPMI-8226 leukemia
LOX IMVI melanoma = system: LOX IMVI melanoma
CAKI-1 renal = system: CAKI-1 renal
MCF7 breast = system: MCF7 breast
UACC-257 melanoma = system: UACC-257 melanoma
SF-539 CNS = system: SF-539 CNS
SN12C renal = system: SN12C renal
MALME-3M melanoma = system: MALME-3M melanoma
SW-620 colon = system: SW-620 colon
MDA-MB-231 breast = system: MDA-MB-231 breast
SK-OV-3 ovarian = system: SK-OV-3 ovarian
EKVX NSCLC = system: EKVX NSCLC
SR leukemia = system: SR leukemia
ACHN renal = system: ACHN renal
SK-MEL-28 melanoma = system: SK-MEL-28 melanoma
A549 NSCLC = system: A549 NSCLC
PC-3 prostate = system: PC-3 prostate
NCI-H522 lung = system: NCI-H522 lung
HT29 colon = system: HT29 colon
OVCAR-8 ovarian = system: OVCAR-8 ovarian
SK-MEL-2 melanoma = system: SK-MEL-2 melanoma
COLO 205 colon = system: COLO 205 colon
M14 melanoma = system: M14 melanoma
KM12 colon = system: KM12 colon
UACC-62 melanoma = system: UACC-62 melanoma
MDA-MB-435 = system: MDA-MB-435
SF-295 CNS = system: SF-295 CNS
K-562 leukemia = system: K-562 leukemia
MOLT-4 leukemia = system: MOLT-4 leukemia
SK-MEL-5 melanoma = system: SK-MEL-5 melanoma
NCI-H23 lung = system: NCI-H23 lung
SF-268 CNS = system: SF-268 CNS
T-47D breast = system: T-47D breast
HL-60(TB) leukemia = system: HL-60(TB) leukemia
OVCAR-3 ovarian = system: OVCAR-3 ovarian
A498 renal = system: A498 renal
OVCAR-5 ovarian = system: OVCAR-5 ovarian
HOP-92 NSCLC = system: HOP-92 NSCLC
NCI-H226 lung = system: NCI-H226 lung
SNB-75 CNS = system: SNB-75 CNS

SMILES: COC1=C(OC)C(=O)C(Cc2c(C)nc3sc(C)cn23)=C(C)C1=O
- TGI (RXF 393 renal): 42.4 µM
- TGI (NCI-H460 lung): 54.3 µM
- TGI (U251 CNS): 39.7 µM
- TGI (HOP-62 NSCLC): 35.7 µM
- TGI (BT-549 breast): 31.2 µM
- TGI (HCC-2998 colon): 92.9 µM
- TGI (786-0 renal): 39.4 µM
- TGI (DU-145 prostate): 48 µM
- TGI (NCI/ADR-RES ovarian): 36.7 µM
- TGI (HCT-116 colon): 49.9 µM
- TGI (CCRF-CEM leukemia): 53.7 µM
- TGI (HCT-15 colon): 96.4 µM
- TGI (IGROV1 ovarian): 32.2 µM
- TGI (TK-10 renal): 35.6 µM
- TGI (OVCAR-4 ovarian): 23.1 µM
- TGI (HS 578T breast): 67.1 µM
- TGI (MDA-N): 32.4 µM
- TGI (SNB-19 CNS): 36.5 µM
- TGI (UO-31 renal): 31.6 µM
- TGI (RPMI-8226 leukemia): 39.2 µM
- TGI (LOX IMVI melanoma): 39.4 µM
- TGI (CAKI-1 renal): 37.4 µM
- TGI (MCF7 breast): 59.9 µM
- TGI (UACC-257 melanoma): 26.1 µM
- TGI (SF-539 CNS): 32.4 µM
- TGI (SN12C renal): 31 µM
- TGI (MALME-3M melanoma): 37.3 µM
- TGI (SW-620 colon): 51.6 µM
- TGI (MDA-MB-231 breast): 30.2 µM
- TGI (SK-OV-3 ovarian): 38.9 µM
- TGI (EKVX NSCLC): 35.1 µM
- TGI (SR leukemia): 43.1 µM
- TGI (ACHN renal): 30 µM
- TGI (SK-MEL-28 melanoma): 29.9 µM
- TGI (A549 NSCLC): 49.5 µM
- TGI (PC-3 prostate): 68.3 µM
- TGI (NCI-H522 lung): 70.6 µM
- TGI (HT29 colon): 40.6 µM
- TGI (OVCAR-8 ovarian): 32.8 µM
- TGI (SK-MEL-2 melanoma): 34.7 µM
- TGI (COLO 205 colon): 36 µM
- TGI (M14 melanoma): 32.8 µM
- TGI (KM12 colon): 55.5 µM
- TGI (UACC-62 melanoma): 27.4 µM
- TGI (MDA-MB-435): 33.6 µM
- TGI (SF-295 CNS): 43.7 µM
- TGI (K-562 leukemia): 39 µM
- TGI (MOLT-4 leukemia): 4.23 µM
- TGI (SK-MEL-5 melanoma): 28.6 µM
- TGI (NCI-H23 lung): 37.2 µM
- TGI (SF-268 CNS): 35.7 µM
- TGI (T-47D breast): > 100 µM
- TGI (HL-60(TB) leukemia): 29.8 µM
- TGI (OVCAR-3 ovarian): 35.6 µM
- TGI (A498 renal): > 100 µM
- TGI (OVCAR-5 ovarian): 40.7 µM

SMILES: Cc1ccc([N+](=O)[O-])cc1S(=O)(=O)Nc1ccc(C2=NNC(c3ccccc3)C2)cc1 (configuration not stated)
- TGI (RXF 393 renal): 30.4 µM
- TGI (NCI-H460 lung): 37.6 µM
- TGI (HOP-62 NSCLC): 27.2 µM
- TGI (BT-549 breast): 52 µM
- TGI (HCC-2998 colon): 44.9 µM
- TGI (786-0 renal): 74.1 µM
- TGI (DU-145 prostate): 92 µM
- TGI (NCI/ADR-RES ovarian): 92.2 µM
- TGI (HCT-116 colon): 33.1 µM
- TGI (HCT-15 colon): 62.1 µM
- TGI (IGROV1 ovarian): > 100 µM
- TGI (TK-10 renal): > 100 µM
- TGI (OVCAR-4 ovarian): 54.4 µM
- TGI (HS 578T breast): > 100 µM
- TGI (MDA-N): 92.7 µM
- TGI (SNB-19 CNS): > 100 µM
- TGI (UO-31 renal): 71.5 µM
- TGI (HOP-92 NSCLC): > 100 µM
- TGI (RPMI-8226 leukemia): > 100 µM
- TGI (NCI-H226 lung): > 100 µM
- TGI (CAKI-1 renal): 53.6 µM
- TGI (MCF7 breast): 43.7 µM
- TGI (UACC-257 melanoma): 40.2 µM
- TGI (SF-539 CNS): 89.2 µM
- TGI (SN12C renal): 59.2 µM
- TGI (MALME-3M melanoma): 46 µM
- TGI (SW-620 colon): > 100 µM
- TGI (MDA-MB-231 breast): 77.5 µM
- TGI (SK-OV-3 ovarian): 58.8 µM
- TGI (EKVX NSCLC): > 100 µM
- TGI (SR leukemia): 48.7 µM
- TGI (ACHN renal): 54.2 µM
- TGI (SK-MEL-28 melanoma): > 100 µM
- TGI (A549 NSCLC): > 100 µM
- TGI (PC-3 prostate): > 100 µM
- TGI (NCI-H522 lung): 57 µM
- TGI (HT29 colon): > 100 µM
- TGI (OVCAR-8 ovarian): > 100 µM
- TGI (SK-MEL-2 melanoma): 45.4 µM
- TGI (COLO 205 colon): 41.4 µM
- TGI (M14 melanoma): 52.3 µM
- TGI (KM12 colon): 34.4 µM
- TGI (UACC-62 melanoma): 24.3 µM
- TGI (MDA-MB-435): 44.6 µM
- TGI (SF-295 CNS): 21.7 µM
- TGI (K-562 leukemia): 85 µM
- TGI (MOLT-4 leukemia): 39.8 µM
- TGI (SK-MEL-5 melanoma): 30.9 µM
- TGI (NCI-H23 lung): 89.8 µM
- TGI (SF-268 CNS): > 100 µM
- TGI (T-47D breast): 28.5 µM
- TGI (HL-60(TB) leukemia): 54.2 µM
- TGI (OVCAR-3 ovarian): 20.4 µM
- TGI (SNB-75 CNS): > 100 µM
- TGI (A498 renal): 68.9 µM
- TGI (OVCAR-5 ovarian): > 100 µM
